Publication PMC8640168 (Current Research in Structural Biology, 2021)

Target: SaPgsA (Staphylococcus aureus, UniProt P63756)
Assay: […]-G3P incorporation into chloroform-soluble PGP, scintillation counting
Assay type: biochemical
Settings: 1.6 mM [14C]-G3P, 100 mM MgCl2, 20 mM Triton X-100, 100 mM Tris-HCl pH 8.0, 27 C, 50 nM enzyme; detergent micelle (bulk concentration)

Substance: CDP-DAG
- Km: 400 µM
